Source: ChEMBL document CHEMBL4043241, “Development and evaluation of 4-(pyrrolidin-3-yl)benzonitrile derivatives as inhibitors of lysine specific demethylase 1” (Bioorg Med Chem Lett, 2017)
pIC50, pKd: −log10 of the molar value.

Legend:
[1] = molecular target: T1, Lysine-specific histone demethylase 1A (Homo sapiens, UniProt O60341); experiment: Binding affinity to LSD1 (unknown origin) by SPR analysis
[2] = molecular target: Voltage-gated inwardly rectifying potassium channel KCNH2 (Homo sapiens, UniProt Q12809); experiment: Inhibition of human ERG expressed in CHO cells by Ionworks electrophysiology method; assay type: cell-based
Chain of Voltage-gated inwardly rectifying potassium channel KCNH2 (Q12809 whole entry): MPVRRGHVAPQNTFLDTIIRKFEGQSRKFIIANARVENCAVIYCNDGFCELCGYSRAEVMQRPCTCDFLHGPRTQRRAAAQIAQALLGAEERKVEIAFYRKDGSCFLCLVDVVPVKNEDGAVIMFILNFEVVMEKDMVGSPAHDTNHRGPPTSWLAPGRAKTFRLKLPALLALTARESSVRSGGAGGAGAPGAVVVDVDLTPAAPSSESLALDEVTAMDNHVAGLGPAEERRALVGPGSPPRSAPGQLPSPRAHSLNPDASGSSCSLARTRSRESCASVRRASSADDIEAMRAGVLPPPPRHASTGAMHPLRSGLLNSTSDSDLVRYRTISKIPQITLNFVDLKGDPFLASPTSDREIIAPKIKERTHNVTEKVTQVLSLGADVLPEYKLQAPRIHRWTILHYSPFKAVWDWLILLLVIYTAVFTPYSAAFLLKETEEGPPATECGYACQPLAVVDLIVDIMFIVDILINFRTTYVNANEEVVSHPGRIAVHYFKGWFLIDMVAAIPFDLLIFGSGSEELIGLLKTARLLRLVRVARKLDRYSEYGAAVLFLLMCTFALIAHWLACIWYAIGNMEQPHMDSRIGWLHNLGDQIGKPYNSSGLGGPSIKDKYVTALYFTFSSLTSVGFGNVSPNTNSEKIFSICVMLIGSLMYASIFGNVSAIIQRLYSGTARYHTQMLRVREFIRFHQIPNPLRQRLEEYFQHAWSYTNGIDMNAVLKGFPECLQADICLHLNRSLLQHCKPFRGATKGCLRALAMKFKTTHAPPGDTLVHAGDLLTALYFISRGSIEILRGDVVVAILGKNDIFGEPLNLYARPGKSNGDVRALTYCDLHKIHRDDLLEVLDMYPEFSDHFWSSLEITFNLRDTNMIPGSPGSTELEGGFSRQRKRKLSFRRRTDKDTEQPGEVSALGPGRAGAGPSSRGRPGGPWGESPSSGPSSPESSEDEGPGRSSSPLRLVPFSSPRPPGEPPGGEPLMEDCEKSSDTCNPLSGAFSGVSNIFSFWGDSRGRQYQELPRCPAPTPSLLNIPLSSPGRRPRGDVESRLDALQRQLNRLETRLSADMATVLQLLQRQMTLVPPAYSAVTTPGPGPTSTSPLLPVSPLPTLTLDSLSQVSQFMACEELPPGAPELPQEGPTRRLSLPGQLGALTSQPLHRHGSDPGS

[3] = molecular target: T1, Lysine-specific histone demethylase 1A
Description: Inhibition of recombinant human N-terminal truncated LSD1 (151 to 852 residues) expressed in Escherichia coli using histone H3(1-21)K4(Me1) biotin peptide as substrate measured after 30 mins by TR-FRET assay

[4] = molecular target: T2, Amine oxidase [flavin-containing] A (Homo sapiens, UniProt P21397); experiment: Inhibition of recombinant human MAO-A expressed in supersomes using kynuramine as substrate by LC-MS/MS analysis
T2 sequence (P21397 whole entry): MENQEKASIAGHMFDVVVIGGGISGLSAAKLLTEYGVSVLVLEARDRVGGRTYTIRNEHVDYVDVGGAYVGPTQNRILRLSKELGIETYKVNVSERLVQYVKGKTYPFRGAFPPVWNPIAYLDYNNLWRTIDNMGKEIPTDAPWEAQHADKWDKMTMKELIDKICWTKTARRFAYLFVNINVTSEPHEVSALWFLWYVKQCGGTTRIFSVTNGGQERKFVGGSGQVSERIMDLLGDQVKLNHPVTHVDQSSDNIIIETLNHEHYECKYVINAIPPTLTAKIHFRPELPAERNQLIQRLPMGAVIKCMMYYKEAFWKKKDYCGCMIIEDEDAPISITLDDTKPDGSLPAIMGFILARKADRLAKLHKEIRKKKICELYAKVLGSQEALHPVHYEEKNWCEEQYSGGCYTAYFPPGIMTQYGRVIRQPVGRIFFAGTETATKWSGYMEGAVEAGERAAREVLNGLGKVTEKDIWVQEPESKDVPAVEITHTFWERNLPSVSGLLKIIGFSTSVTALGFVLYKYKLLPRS

[5] = molecular target: T3, Amine oxidase [flavin-containing] B (Homo sapiens, UniProt P27338); experiment: Inhibition of recombinant human MAO-B expressed in supersomes using kynuramine as substrate by LC-MS/MS analysis
T3 sequence (P27338 whole entry): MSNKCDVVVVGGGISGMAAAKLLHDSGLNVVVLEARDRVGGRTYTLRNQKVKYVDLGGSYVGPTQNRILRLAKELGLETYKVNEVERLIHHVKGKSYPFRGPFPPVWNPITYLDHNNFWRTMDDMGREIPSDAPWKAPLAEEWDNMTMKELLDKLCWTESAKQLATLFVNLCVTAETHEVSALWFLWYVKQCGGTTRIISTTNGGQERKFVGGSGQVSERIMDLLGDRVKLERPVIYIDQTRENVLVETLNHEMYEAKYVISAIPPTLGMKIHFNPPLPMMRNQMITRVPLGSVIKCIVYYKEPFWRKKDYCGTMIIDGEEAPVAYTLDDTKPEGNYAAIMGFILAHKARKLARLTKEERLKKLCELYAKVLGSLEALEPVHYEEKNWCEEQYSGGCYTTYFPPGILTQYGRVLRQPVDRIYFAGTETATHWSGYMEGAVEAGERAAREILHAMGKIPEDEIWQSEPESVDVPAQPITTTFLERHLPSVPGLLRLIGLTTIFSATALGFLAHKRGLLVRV

pKd [1]	pIC50 [3]	pIC50 [4]	pIC50 [5]	Compound	pIC50 [2]
8.10	7.39			Cc1ccc(-c2ncc(OC[C@@H]3CCNC3)cc2-c2ccc(C#N)cc2)cc1	5.49
		< 4.60	< 4.60	Cc1ccc([C@@H]2CN(C(=O)[C@H]3CC[C@H](CN)CC3)C[C@H]2c2ccc(C#N)cc2)cc1	4.92
